One may read the EC50 as the concentration at which the effect is half-maximal.

Non-standard residues stand in square brackets, D forms with d. Residues, ends and D or L forms follow the SMILES beside them. *: point of attachment. AllylGly = C=CC[C@H](N)C(=O)O; Acryloyl = C=CC(=O)*; NHBn = c1ccc(CN*)cc1; ClAc = O=C(CCl)* Some results are limits rather than exact numbers.

Results on 19 compounds are retold here after ChEMBL document CHEMBL5543078, “Peptidomimetics as potent dual SARS-CoV-2 cathepsin-L and main protease inhibitors: In silico design, synthesis and pharmacological characterization” (Eur J Med Chem, 2024).

The subject of this test is SARS-CoV-2. As to the kind of experiment: microbe, parasite or virus in culture. Particulars: Severe acute respiratory syndrome coronavirus 2, RG-2674 (Beta), Vero.
In the case of `C=CC[C@H](NC(=O)CCl)C(=O)N[C@@H](CC=C)C(=O)N[C@H](CNCc1ccccc1)Cc1c[nH]c2ccccc12`, the EC50 was 2160 nM.
The same measure for `CC(C)C[C@@H](NC(=O)CCl)C(=O)N[C@@H](Cc1c[nH]c2ccccc12)C(=O)NCc1ccccc1`: 70 nM; for `O=C(CS)N[C@@H](Cc1ccccc1)C(=O)N[C@@H](Cc1c[nH]c2ccccc12)C(=O)NCc1ccccc1`: over 100000 nM; for `C=CC[C@H](NC(=O)CCl)C(=O)N[C@@H](Cc1c[nH]c2ccccc12)C(=O)NCCN1CCOCC1`: 5900 nM.
The figure for `CC(C)C[C@H](NC(=O)CCl)C(=O)N[C@H](Cc1c[nH]c2ccccc12)C(=O)NCc1ccccc1` is 8930 nM; for `CC(C)C[C@@H](C(=O)NCC12CC3CC(CC(C3)C1)C2)N(Cc1ccccc1)C(=O)CCl` it is over 4000 nM; for `CC(C)C[C@H](NC(=O)CCl)C(=O)N[C@@H](Cc1c[nH]c2ccccc12)C(=O)NCc1ccccc1` it is 440 nM.
In the case of `C=CC(=O)N[C@@H](CC(C)C)C(=O)N[C@@H](Cc1c[nH]c2ccccc12)C(=O)NCc1ccccc1`, the concentration giving a half-maximal response (EC50) was over 100000 nM.
Consider `C=CC(=O)N[C@@H](Cc1ccccc1)C(=O)N[C@@H](Cc1c[nH]c2ccccc12)C(=O)NCc1ccccc1` (Acryloyl-Phe-Trp-NHBn), for which the half-maximal effective concentration (EC50) was over 20000 nM.
In the case of `O=C(CCl)NCC(=O)N[C@@H](Cc1c[nH]c2ccccc12)C(=O)NCc1ccccc1` (ClAc-Gly-Trp-NHBn), the EC50 turned out to be 70 nM.
The figure for `CC(C)C[C@H](NC(=O)CCl)C(=O)N[C@@H](Cc1ccccc1)C(=O)N[C@@H](Cc1c[nH]c2ccccc12)C(=O)NCc1ccccc1` (ClAc-Leu-Phe-Trp-NHBn) is over 20000 nM; for `COC(=O)[C@H](CCC(N)=O)NC(=O)[C@H](Cc1c[nH]c2ccccc12)NC(=O)[C@H](CC(C)C)NC(=O)CCl` (ClAc-Leu-Trp-Gln-OMe) it is over 100000 nM.
Consider `O=C(CCl)N[C@@H](Cc1ccccc1)C(=O)N[C@@H](Cc1c[nH]c2ccccc12)C(=O)NCc1ccccc1` (ClAc-Phe-Trp-NHBn), for which the response was half-maximal at 70 nM (EC50).
The same measure for `CC(C)C[C@H](NC(=O)[C@H](Cc1c[nH]c2ccccc12)NC(=O)CCl)C(=O)NCc1ccccc1` (ClAc-Trp-Leu-NHBn): 260 nM; for `COC(=O)[C@H](CC(C)C)NC(=O)[C@H](Cc1c[nH]c2ccccc12)NC(=O)CCl` (ClAc-Trp-Leu-OMe): over 4000 nM.
The compound `O=C(CCl)N[C@@H](Cc1ccc(O)cc1)C(=O)N[C@@H](Cc1c[nH]c2ccccc12)C(=O)NCc1ccccc1` (ClAc-Tyr-Trp-NHBn) had a concentration giving a half-maximal response (EC50) of 3320 nM. This lies in the single-digit micromolar range.
The same measure for `C=CC[C@H](NC(=O)CCl)C(=O)N[C@@H](Cc1c[nH]c2ccccc12)C(=O)NCc1ccccc1` (ClAc-[AllylGly]-Trp-NHBn): 460 nM; for `CC(C)C(=O)OC[C@H]1O[C@@H](n2ccc(NO)nc2=O)[C@H](O)[C@@H]1O` [MOLNUPIRAVIR]: 2810 nM; for `CCC(CC)COC(=O)[C@H](C)N[P@](=O)(OC[C@H]1O[C@@](C#N)(c2ccc3c(N)ncnn23)[C@H](O)[C@@H]1O)Oc1ccccc1` [REMDESIVIR]: 2400 nM.
